The results in this text go back to patent publication US20240100023A1, “Compositions and Methods For Treating Spinal Cord Injuries” (priority 2020, published 2024).

The subject of one series is Mouse (CD1). As to the kind of experiment: Amphetamine-stimulated locomotion in mice. Type of series: in vivo. The settings on record: for Minimum Effective Dose, amphetamine-stimulated locomotion: Mouse (CD1), IP; for Dose producing a significant decrease in amphetamine-stimulated locomotion: mice, amphetamine 2 mg/kg i.p. The method, then: (§1) Effects of exemplary low impact ampakines were also evaluated in mice for the ability to inhibit amphetamine-stimulated locomotor activity. Mice were placed in the locomotor chamber for 20 min to habituate, removed, injected with either vehicle or SCI recovery ampakine (CX717), and 5 min later injected with 2 mg/kg i.p. Amphetamine Mice were returned to the locomotor chamber 10 min later, and their activity measured for a further 15 min. In related studies, adult male CD1 mice or male Sprague-Dawley rats were acclimated in a test chamber for 20 minutes removed and dosed i.p. (mice) or orally (rats) with CX1739, vehicle, or a reference compound. Five (mice) or 10 (rats) were then injected with amphetamine (2 mg/kg, i.p.) or saline vehicle and were returned to the activity test chamber.

Series [1] in a line: Phase 1 studies in healthy volunteers (safety, pharmacokinetics). In kind it is in vivo, human.
For the next series, the system named is Rat (Wistar). As to the kind of experiment: Novel object recognition memory. In kind it is in vivo. Particulars: for Minimum Effective Dose, novel object recognition memory: Rat (Wistar), IP. As to the method: Additional Novel Object Recognition behavioral model studies were conducted to further elucidate the SCI recovery activities of CX717 and CX1739. Rats were habituated to a test box for two 5-minute sessions on consecutive days. Each test session consisted of two phases: in the first phase (“sample period”), two identical objects (A1 and A2) were placed in the far corners of the box, and the rats were allowed to explore the objects. After a 24 hour delay, rats were re-introduced to the arena (“test period”) now containing a third identical copy of the familiar object (A3) and a new object (B), placed in the same locations as in the first phase, and the total time spent exploring each of the objects was determined over a 3-min duration. For CX717 drug treatment, rats were dosed 30 min prior to each sample session with either 0.1, 0.3, 1.0 mg/kg CX717 (p.o.); vehicle (0.5% methylcellulose, p.o.) or 0.9 mg/kg Aricept (E2020, i.p.). The exploration times for the full 3-min were calculated and expressed as the discrimination index, d1, defined as the absolute difference in time spent exploring the novel object minus the familiar object.
For CX1739 Male Wistar rats were assessed for cognitive ability in a test apparatus comprising an open-field arena placed in a sound-attenuated room under dimmed lighting. Rat exploration and activity were captured by a digital camera, and viewed on a monitor in an adjoining area. Following a 5-minute habituation period, each animal was placed in the test arena in the presence of two identical objects (plastic shapes) and the time spent actively exploring the objects during a 5-minute test period (T1) was recorded. After 24 hours, each rat was again placed in the test arena for 5 minutes (T2) in the presence of one familiar object and one novel object, and the time spent exploring both objects was recorded. The Recognition Index was calculated as the percentage of total exploration time spent exploring the novel object during the retention session (T2), which provides the primary measure of cognitive function in this assay.
The Novel object recognition (NOR) paradigm is a rodent model of recognition learning memory retrieval and takes advantage of the spontaneous behavior of rodents to investigate a novel object compared with a familiar object. NOR has been employed extensively to indicate cognition-enhancing properties of drug candidates, predictive of therapeutic efficacy of positively-assaying drugs for reducing SCI symptoms in humans.

The subject of series [2] is evoked fEPSPs in rat hippocampus. As to the kind of experiment: Evoked fEPSPs in rat hippocampus in vivo (perforant path / dentate gyrus). More on the design: species or system Rat (Long Evans). The settings on record: for Minimum Effective Dose, effect on evoked fEPSPs in rat hippocampus: Rat (Long Evans), IP; for Effect on evoked fEPSP / EPSP amplitude: anesthetized rat, intraperitoneal. The method, then: Further selection and characterization of ampakines to identify SCI recovery drugs useful within the invention involved electrophysiological studies (to measure “electrically evoked field excitatory postsynaptic potentials” (fEPSPs) for test compounds). CX717 and CX1739 were tested for their ability to facilitate synaptic responses in vivo in anesthetized animals following peripheral administration. Stimulating and recording electrodes were inserted into the perforant path and dentate gyrus of the hippocampus, respectively. Electrically evoked field excitatory postsynaptic responses (fEPSPs) were measured before administration of ampakines, and for approximately 2 hours following intraperitoneal administration of ampakines.
Electrically evoked field excitatory postsynaptic potentials (fEPSPs) were determined for the exemplary test ampakines CX717 and CX1739 as described. […] The response magnitude was related to the plasma levels achieved during the study. […] Both ampakines appear to produce a 25% maximum increase in fEPSP amplitude.

In another series the test system is Rat (SD). As to the kind of experiment: Amphetamine-stimulated locomotion and rearing in rats. In kind it is in vivo. Particulars: for Minimum Effective Dose, amphetamine-stimulated locomotion and rearing: Rat (SD), PO. As to the method:
as §1

A further series has as its system Monkey (Rhesus). Briefly: Delayed match-to-sample test. Type of series: in vivo, Rhesus macaque. The settings on record: for Minimum Effective Dose, delayed match-to-sample test: Monkey (Rhesus), PO. As to the method: Further elucidating the potent behavioral and cognitive effects of exemplary ampakines useful within the invention, additional studies using the well-known Monkey Delayed Match to Sample assay were conducted. CX1739 was evaluated using aged Rhesus macaque monkeys (18 to 33 years old), undertaking the delayed match-to-sample (DMTS) task. The stimuli included red, blue, or yellow rectangles. A trial was initiated by presentation of a sample rectangle composed of one of the three colors. The sample rectangle remained in view until the monkey touched within its borders to initiate a pre-programmed delay (retention) interval. Following the delay interval, two choice rectangles were presented, with one of the two choice colors being the color matching the stimulus and the other (incorrect) color as one of the two remaining colors. A correct (matching) choice was reinforced. Non-matching choices were neither reinforced nor punished. The duration for each delay interval was adjusted for each subject until three levels of group performance accuracy approximated zero delay (85-100% of trials answered correctly), short delay interval (75-84% correct), medium delay interval (65-74% correct), and long delay interval (55-64% correct). The inter-trial interval was 5 seconds and each session consisted of 96 trials.

The subject of the next series is LTP in rat hippocampus. As to the kind of experiment: Induction of LTP in rat hippocampus in vivo. More on the design: species or system Rat (Long Evans). Particulars: for Minimum Effective Dose, effect on induction of LTP in rat hippocampus: Rat (Long Evans), IP.

Molecules are shown by their SMILES.

Turning to `O=C(c1ccc2nonc2c1)N1CCOCC1` [CX717, 1-(benzofurazan-5-ylcarbonyl)morpholine], in the series on Mouse (CD1), the “Minimum Effective Dose, amphetamine-stimulated locomotion” value worked out at 18 mg/kg and the “Dose producing a significant decrease in amphetamine-stimulated locomotion” value turned out to be 3 mg/kg. Also, in series [1] (species not stated), the “Half-life compared with CX516” value is listed as “significantly longer half-lives than CX516”. Further, the “d1 scores (discrimination index) compared to vehicle” value with Rat (Wistar) (0.3 mg/kg, 24 hour delay) is given as “significant increase”. For the same compound, in the series with Rat (Wistar), the “Minimum Effective Dose, novel object recognition memory” value is recorded as 0.3 mg/kg. Further, in series [2], the “Minimum Effective Dose, effect on evoked fEPSPs in rat hippocampus” value is on record as 5 mg/kg and the “Effect on evoked fEPSP / EPSP amplitude” value is “long-lasting increase”. Further, the “Minimum Effective Dose, amphetamine-stimulated locomotion and rearing” value in the series with Rat (SD) came to 1 mg/kg. The “Minimum Effective Dose, delayed match-to-sample test” value in the series on Monkey (Rhesus) worked out at 0.8 mg/kg. In the series on LTP in rat hippocampus, the “Minimum Effective Dose, effect on induction of LTP in rat hippocampus” value was 2 mg/kg.

`CN(C(=O)c1ccc2nonc2c1)C1CCOCC1` [CX1739, N-Methyl-N-tetrahydro-2H-pyran-4-yl-[2,1,3]-benzoxadiazole-5-carboxamide]: in the series with Mouse (CD1), the “Minimum Effective Dose, amphetamine-stimulated locomotion” value came to 30 mg/kg and the “Dose producing a significant decrease in amphetamine-stimulated locomotion” value was 30 mg/kg. In addition, the “Half-life compared with CX516” value in series [1] (human, in vivo) is reported as “significantly longer half-lives than CX516”. Further, the “Preference for novel object exploration compared with positive control” value in the series on Rat (Wistar) (0.03 mg/kg) is reported as “comparable to that of 3 mg/kg galantamine”. Further, the “Minimum Effective Dose, novel object recognition memory” value in the series with Rat (Wistar) is 0.03 mg/kg. Further, in series [2], the “Minimum Effective Dose, effect on evoked fEPSPs in rat hippocampus” value was 5 mg/kg and the “Effect on evoked fEPSP / EPSP amplitude” value is given as “substantial increase”. In addition, the “Minimum Effective Dose, amphetamine-stimulated locomotion and rearing” value in the series on Rat (SD) is 1 mg/kg. The “Amphetamine-stimulated rearing behavior in rats” value in the series with Rat (SD) (rats, all doses tested) is “modest reduction”. Further, the “Minimum Effective Dose, delayed match-to-sample test” value in the series on Monkey (Rhesus) is reported as 0.3 mg/kg. The “Task accuracy with the Best Dose of each subject” value in the series with Monkey (Rhesus) (sessions initiated 45 min after administration) is listed as “statistically significant increase”. Further, the “Effect on LTP after tetanic stimulation” value in the series with LTP in rat hippocampus (3 mg/kg, 15 minutes prior to tetanic stimulation) was “statistically significant increase in LTP”. The “Minimum Effective Dose, effect on induction of LTP in rat hippocampus” value in the series on LTP in rat hippocampus is on record as 3 mg/kg.
